This is an account of results in patent publication US20230414598A1, “COMBINATION THERAPIES WITH CBL-B INHIBITOR COMPOUNDS AND ANTIEMETIC AGENTS” (NURIX THERAPEUTICS, INC., priority 2022, published 2023).

Structures are written as SMILES.

What all share (format): in vivo, human
The test system of data set [1] is patient's nausea and vomiting symptoms. Kind of data set: Antiemetic given prior to compound 23: control of nausea and vomiting. The note with it: for effect on emetic symptoms (nausea and vomiting): single oral dose 30-60 minutes prior to compound 23 dosing.
Protocol: Prior to administration of compound 23, the antiemetic was administered as outlined below. Example 1: ondansetron via IV: 8 mg or 0.15 mg/kg as single dose; maximum dose of 16 mg/dose. Example 1B: ondansetron via oral: 8 mg up to twice daily. In this example, the patient was weaned off ondansetron via oral after two weeks. […] Example 2: granisetron via IV: 1 mg or 10 mcg/kg as a single dose. Example 2B granisetron via oral: 2 mg as a single dose. In this example, the patient was weaned off oral granisetron after four weeks. […] Example 2C: granisetron via SUBQ: 10 mg as single dose. Example 2D: granisetron via transdermal: apply one patch. Example 5: metoclopramide, a dopamine antagonist, via oral: 10 mg 30 minutes prior to the adminstration of compound 23. […] Example 6: diphenhydramine, a histamine antagonist, via oral or parental: 25 mg or 50 mg 30 minutes prior to the adminstration of compound 23.
The nature of data set [2]: Pharmacokinetic analysis of compound 23 plasma concentrations in patients (LC-MS/MS, non-compartmental). The note with it: for AUC(0-t) / Cmax / half-life / Tmax: human, plasma; for AUC(0-t) / Cmax: geometric mean; for half-life: mean; for Tmax: median. How it is done:
Patients were administered doses of compound 23 ranging from 5 to 50 mg once daily. Plasma concentrations of compound 23 were quantified using acetonitrile precipitation and LC-MS/MS. The peak area of the product ion of the analyte was measured against the peak area of the product ion of the stable label internal standard. A calibration curve spanning the curve range and containing at least six conentrations in duplicate was used to quantify the analyte concentration. The retention times of the analyte and internal standard are approximately 1.5 minutes. PK analyses were donucted using non-compartmental analyses to obtain PK parameters. […] Patients were administered doses of compound 23 ranging from 5 to 50 mg once daily. Plasma concentrations of compound 23 were quantified using acetonitrile precipitation and LC-MS/MS. The peak area of the product ion of the analyte was measured against the peak area of the product ion of the stable label internal standard. A calibration curve spanning the curve range and containing at least six conentrations in duplicate was used to quantify the analyte concentration. The retention times of the analyte and internal standard are approximately 1.5 minutes. PK analyses were donucted using non-compartmental analyses to obtain PK parameters. […] PK data are provided below (Cmax and AUC0-last are presented as geometric mean (geometric %C V); Tmax is presented as median (range); t1/2 is presented as mean (% CV).

Data set [3] in a line: Adverse events after oral administration of compound 23 to patients. The protocol: The nausea and vomiting symptoms were mitigated when a single oral (versus other routes of adminstration such as intravenous) dose of 5-HT3 antagonist was administered 30-60 minutes prior to the compound 23 dosing. […] The adverse events (e.g., symptoms include nausea, vomiting, headache, hypotension, tachycardia, bradycardia, among others) were resolved within 24 hours prior to the next dose. The nausea and vomiting were controlled by serotonin (5-HT3) receptor blockers, ondansetron and granisetron.

The test system of the next data set is 5-HT. Briefly: 5-HT levels in the local gut after compound 23. To be noted: after administration of compound 23.
Where [4] appears, read: Cycle 1 Day 1, 5 mg once daily (n = 1).
Where [5] appears, read: Cycle 1 Day 1, 15 mg once daily (n = 9).
Setting [6] is: Cycle 1 Day 1, 25 mg once daily (n = 6).
[7] abbreviates: Cycle 1 Day 1, 50 mg once daily (n = 2).
The mark [8] stands for this setting: 25 mg and 50 mg single daily dose administered fasting.

Take `CN(C)CCOC(c1ccccc1)c1ccccc1` [diphenhydramine]: in data set [1] (oral or parenteral 25 mg or 50 mg 30 minutes prior to compound 23), the “control of nausea and vomiting symptoms” value was “did not control the patient's nausea and vomiting sympotms”.

As for `CN1C2CCCC1CC(NC(=O)c1nn(C)c3ccccc13)C2` (stereo not shown) [granisetron], in data set [1], the “effect on emetic symptoms (nausea and vomiting)” value is “reduced emetic symptoms”.

As to `C[C@H]1CCCN(Cc2cc3c(c(C(F)(F)F)c2)CN(c2cccc([C@]4(c5nncn5C)C[C@@H](C)C4)c2)C3=O)C1` [Compound 23], in data set [2] (5 to 50 mg once daily), the “accumulation upon repeat daily dosing” value is recorded as “no accumulation” and the “dose proportionality of exposures” value is reported as “dose-proportional increase in exposures”. In addition, in data set [2] (setting [4]), the AUC(0-t) turned out to be 26.2 ng·h/mL, the Cmax was 4.35 ng/mL, the half-life was 7.72 h and the Tmax was 2 h. Further, in data set [2] (setting [5]), the AUC(0-t) was found to be 129 ng·h/mL, the Cmax was 16.2 ng/mL, the half-life was 7.14 h and the Tmax stood at 2 h. Besides, in data set [2] (setting [6]), the AUC(0-t) was 201 ng·h/mL, the Cmax came to 30.1 ng/mL, the half-life is 6.82 h and the Tmax stood at 1.5 h. In data set [2] (setting [7]), the AUC(0-t) was determined as 502 ng·h/mL, the highest level (Cmax) was 79.2 ng/mL, the half-life is 5.88 h and the Tmax turned out to be 2.5 h. Further, in data set [3] (setting [8]), the adverse events induced result is “signficant events of nausea, vomiting, synocope, tachycardia, hypotension, and bradycardia”; the “time to onset of adverse events” value is no more than 2 h. The “time to resolution of adverse events” value in data set [3] (nausea, vomiting, headache, hypotension, tachycardia, bradycardia, prior to the next dose) is no more than 24 h. Moreover, the “need for antiemetic after weaning” value in data set [1] (daily compound 23 after patient weaned off oral granisetron after four weeks) is “without the need for granisetron”. In data set [1] (daily compound 23 after patient weaned off oral ondansetron after two weeks), the “need for antiemetic after weaning” value was “without the need for ondanesetron”. Besides, the “levels of 5-HT in the local gut” value with 5-HT is “increased levels of 5-HT in the local gut”.

On to `Cc1nccn1CC1CCc2c(c3ccccc3n2C)C1=O` (stereo not shown) [ondansetron], for which the “effect on emetic symptoms (nausea and vomiting)” value in data set [1] is recorded as “reduced emetic symptoms”.

Regarding `CCN(CC)CCNC(=O)c1cc(Cl)c(N)cc1OC` [metoclopramide], the “control of nausea and vomiting symptoms” value in data set [1] (oral 10 mg 30 minutes prior to compound 23) is “did not control the patient's nausea and vomiting sympotms”.

One may read the AUC(0-t) as the area under the concentration-time curve up to a stated or last time point. In general, Cmax refers to the highest concentration seen after dosing. Broadly, the half-life is how long it takes for the measured level to halve. High values mean slow loss, low ones fast loss. For orientation: Tmax means the time at which the peak concentration occurs.
